Data taken from US6770442B2, “Methods for modulating the solubility of synthetic polymers” (Boston Probes, Inc., priority 1998, dated 2004).

Legend:
[1] = Solubility of labeled PNA oligomer in aqueous buffer
[2] = UV Tm analysis of unimolecular PNA hairpins (9 bp stem duplex); type: physicochemical; conditions: for cooperativity of sigmoidal melting transition (normalized absorbance vs. temperature): each probe at [1], FIG. 11
Description: The five Tm Samples of a dilution series of a particular unimolecular probe to be analyzed were simultaneously examined using a Cary 100 Bio UV-Visible Spectrophotometer (Varian Instruments) equipped with a 6×6 thermostatable multicell block running Win UV Bio application software package. To a 10×10 UV cell (Starna Cells, P/N 21-Q-10) was added a 7.2 mm stir bar and the 2.5 mL of each sample of the dilution series. The stirring accessory was used during all analysis. All samples were thermally denatured and reannealed prior to data collection by having the instrument rapidly ramp the temperature to a point above the melting temperature and then holding that temperature for 5-10 minutes before returning to the starting temperature. The temperature range over which data was collected was varied in response to the expected Tm which was roughly determined during the premelt and prereannealing step. Regardless of the temperature range, the temperature ramp rate for both melting “M” and reannealing “R” was always 0.5°C./min. The absorbance (260 nm, averaged over a 3 second collection) was plotted vs. the temperature of the multicell block.
After the Tm analysis was performed in Tm Buffer, to each cell was added 0.5 μL of 5M MgCl2 to thereby prepare a sample containing 1 mM MgCl2. The dilution effect was considered to be negligible. The Tm analysis was then performed again to determine whether the presence of MgCl2 had any; effect on the Tm of the unimolecular probe.
After the Tm analysis was performed in Tm Buffer and 1 mM MgCl2, to each cell was added 42 μL of saturated NaCl (approximately 6.11 M/L). The dilution effect was again considered to be negligible. The Tm analysis was then performed again to determine whether the presence of approximately 100 mM NaCl had any effect on the Tm of the unimolecular probe.

[3] = [1] approx. 7.5 μM, Buf, Mg & Na: Tm Buffer, 1 mM MgCl2 and 100 mM NaCl
[4] = [1] approx. 7.5 μM, Buf, Mg: Tm Buffer and 1 mM MgCl2
[5] = [2] approx. 3.75 μM, Buf, Mg & Na: Tm Buffer, 1 mM MgCl2 and 100 mM NaCl
[6] = [2] approx. 3.75 μM, Buf, Mg: Tm Buffer and 1 mM MgCl2
[7] = [2] approx. 3.75 μM, Buf: Tm Buffer
[8] = [3] approx. 1.87 μM, Buf, Mg & Na: Tm Buffer, 1 mM MgCl2 and 100 mM NaCl
[9] = [3] approx. 1.87 μM, Buf, Mg: Tm Buffer and 1 mM MgCl2
[10] = [3] approx. 1.87 μM, Buf: Tm Buffer
[11] = [4] approx. 0.94 μM, Buf, Mg & Na: Tm Buffer, 1 mM MgCl2 and 100 mM NaCl
[12] = [4] approx. 0.94 μM, Buf, Mg: Tm Buffer and 1 mM MgCl2
[13] = [4] approx. 0.94 μM, Buf: Tm Buffer
[14] = [5] approx. 0.468 μM, Buf, Mg & Na: Tm Buffer, 1 mM MgCl2 and 100 mM NaCl
[15] = [5] approx. 0.468 μM, Buf, Mg: Tm Buffer and 1 mM MgCl2
[16] = [5] approx. 0.468 μM, Buf: Tm Buffer

## Flu-OEE-ATA-TAT-TGG-CTG-ATC-CAA-TAT-AT-EE-K(dabcyl)-NH2 [P4]
[1]
  concentration up to which completely soluble: ≥ 7.5 μM/L
[2]; [3]
  Tm, melting M: 82.6 °C
  Tm, reannealing R: 81.8 °C
[2]; [4]
  Tm, melting M: 81.6 °C
  Tm, reannealing R: 81.0 °C
[2]; [5]
  Tm, melting M: 82.6 °C
  Tm, reannealing R: 82.4 °C
[2]; [6]
  Tm, melting M: 81.6 °C
  Tm, reannealing R: 81.5 °C
[2]; [7]
  Tm, melting M: 81.6 °C
  Tm, reannealing R: 81.4 °C
[2]; [8]
  Tm, melting M: 82.6 °C
  Tm, reannealing R: 82.5 °C
[2]; [9]
  Tm, melting M: 82.0 °C
  Tm, reannealing R: 81.5 °C
[2]; [10]
  Tm, melting M: 82.1 °C
  Tm, reannealing R: 81.5 °C
[2]; [11]
  Tm, melting M: 82.5 °C
  Tm, reannealing R: 82.5 °C
[2]; [12]
  Tm, melting M: 82.0 °C
  Tm, reannealing R: 81.1 °C
[2]; [13]
  Tm, melting M: 82.0 °C
  Tm, reannealing R: 81.5 °C
[2]; [14]
  Tm, melting M: 83.0 °C
  Tm, reannealing R: 82.1 °C
[2]; [15]
  Tm, melting M: 82.0 °C
  Tm, reannealing R: 81.6 °C
[2]; [16]
  Tm, melting M: 81.5 °C
  Tm, reannealing R: 81.1 °C

## H-ATA-TAT-TGG-CTG-ATC-CAA-TAT-AT-KK-NH2 [PNAD, reference compound]
[2]; [3]
  Tm, melting M: 80.6 °C
  Tm, reannealing R: 80.4 °C
[2]; [4]
  Tm, melting M: 80.6 °C
  Tm, reannealing R: 80.3 °C
[2]; [5]
  Tm, melting M: 81.5 °C
[2]; [6]
  Tm, melting M: 81.1 °C
  Tm, reannealing R: 80.4 °C
[2]; [7]
  Tm, melting M: 81.1 °C
  Tm, reannealing R: 81.0 °C
[2]; [8]
  Tm, melting M: 81.0 °C
  Tm, reannealing R: 81.4 °C
[2]; [9]
  Tm, melting M: 81.1 °C
  Tm, reannealing R: 80.4 °C
[2]; [10]
  Tm, melting M: 82.0 °C
  Tm, reannealing R: 81.0 °C
[2]; [11]
  Tm, melting M: 81.5 °C
  Tm, reannealing R: 80.5 °C
[2]; [12]
  Tm, melting M: 80.5 °C
  Tm, reannealing R: 81.0 °C
[2]; [13]
  Tm, melting M: 81.5 °C
  Tm, reannealing R: 81.5 °C
[2]; [14]
  Tm, melting M: 82.1 °C
  Tm, reannealing R: 80.6 °C
[2]; [15]
  Tm, melting M: 80.5 °C
  Tm, reannealing R: 80.5 °C
[2]; [16]
  Tm, melting M: 81.5 °C
  Tm, reannealing R: 81.1 °C
[2]
  cooperativity of sigmoidal melting transition (normalized absorbance vs. temperature): least cooperative sigmoidal transition

## H-OEE-ATA-TAT-TGG-CTG-ATC-CAA-TAT-AT-EEK-NH2 [P4N]
[2]; [3]
  Tm, melting M: 82.1 °C
  Tm, reannealing R: 82.3 °C
[2]; [4]
  Tm, melting M: 81.6 °C
  Tm, reannealing R: 81.3 °C
[2]; [5]
  Tm, melting M: 82.1 °C
  Tm, reannealing R: 82.3 °C
[2]; [6]
  Tm, melting M: 81.6 °C
  Tm, reannealing R: 81.3 °C
[2]; [7]
  Tm, melting M: 82.1 °C
  Tm, reannealing R: 81.5 °C
[2]; [8]
  Tm, melting M: 82.5 °C
[2]; [9]
  Tm, melting M: 82.1 °C
  Tm, reannealing R: 81.4 °C
[2]; [10]
  Tm, melting M: 82.1 °C
  Tm, reannealing R: 81.5 °C
[2]; [11]
  Tm, melting M: 82.0 °C
  Tm, reannealing R: 82.0 °C
[2]; [12]
  Tm, melting M: 82.0 °C
[2]; [13]
  Tm, melting M: 82.5 °C
  Tm, reannealing R: 81.1 °C
[2]; [14]
  Tm, melting M: 84.0 °C
  Tm, reannealing R: 81.6 °C
[2]; [15]
  Tm, melting M: 82.0 °C
  Tm, reannealing R: 81.1 °C
[2]; [16]
  Tm, melting M: 82.0 °C
  Tm, reannealing R: 80.1 °C
[2]
  cooperativity of sigmoidal melting transition (normalized absorbance vs. temperature): only a slightly less cooperative a transition as compared with probe P3N

## H-OEE-ATA-TAT-TGG-OO-CCA-ATA-TAT-EEK-NH2 [P3N]
[2]; [3]
  Tm, melting M: 83.1 °C
  Tm, reannealing R: 82.9 °C
[2]; [4]
  Tm, melting M: 83.1 °C
  Tm, reannealing R: 82.4 °C
[2]; [5]
  Tm, melting M: 83.1 °C
  Tm, reannealing R: 81.4 °C
[2]; [6]
  Tm, melting M: 83.1 °C
  Tm, reannealing R: 81.9 °C
[2]; [7]
  Tm, melting M: 82.5 °C
  Tm, reannealing R: 82.4 °C
[2]; [8]
  Tm, melting M: 83.5 °C
  Tm, reannealing R: 82.9 °C
[2]; [9]
  Tm, melting M: 83.0 °C
  Tm, reannealing R: 82.5 °C
[2]; [10]
  Tm, melting M: 83.0 °C
  Tm, reannealing R: 82.4 °C
[2]; [11]
  Tm, melting M: 83.5 °C
  Tm, reannealing R: 83.0 °C
[2]; [12]
  Tm, melting M: 83.0 °C
  Tm, reannealing R: 83.1 °C
[2]; [13]
  Tm, melting M: 83.0 °C
  Tm, reannealing R: 82.5 °C
[2]; [14]
  Tm, melting M: 83.5 °C
  Tm, reannealing R: 83.1 °C
[2]; [15]
  Tm, melting M: 83.0 °C
  Tm, reannealing R: 82.6 °C
[2]; [16]
  Tm, melting M: 83.0 °C
  Tm, reannealing R: 82.6 °C
[2]
  cooperativity of sigmoidal melting transition (normalized absorbance vs. temperature): most cooperative sigmoidal transition
